Measurements as given in the supplement of paper PMC10307832.

What was measured:
Assay in all cases: relative viability (nuclei count vs DMSO), 5 days (fraction); higher = more cells survive
[1] = compound: O=C(NCCCNc1nc(Nc2cccc(NC(=O)N3CCCC3)c2)ncc1I)c1cccs1 [BX 795] + Cc1nc(Nc2ncc(C(=O)Nc3c(C)cccc3Cl)s2)cc(N2CCN(CCO)CC2)n1 [Dasatinib] (partner 0.075 µM)
Summary of the method: (§1)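 Nuclei were stained with Hoechst during a one-step fixation (final 0.05% Triton X-100, 1% formaldehyde, 1 ug/ml Hoechst) carried out 5 days after dosing, then counted on 4× images. The cells, lung cancer lines in 1536-well plates, had been dosed by pin tool the day after seeding with one drug alone or a fixed anchor-drug dose plus five library-drug doses (not always all listed) in √10 steps. Relative viability is the nuclei count in treated wells divided by that in vehicle wells, and each value is the median of duplicate plates.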

[2] = compound: O=C(NCCCNc1nc(Nc2cccc(NC(=O)N3CCCC3)c2)ncc1I)c1cccs1 [BX 795] + Cc1cc(Nc2cc(N3CCN(C)CC3)nc(Sc3ccc(NC(=O)C4CC4)cc3)n2)n[nH]1 [Tozasertib] (partner 0.1 µM)
Summary of the method: as §1

[3] = compound: O=C(NCCCNc1nc(Nc2cccc(NC(=O)N3CCCC3)c2)ncc1I)c1cccs1 [BX 795] + COc1cc2c(Oc3ccc(NC(=O)C4(C(=O)Nc5ccc(F)cc5)CC4)cc3F)ccnc2cc1OCCCN1CCOCC1 [Foretinib] (partner 0.25 µM)
Summary of the method: as §1

[4] = compound: O=C(NCCCNc1nc(Nc2cccc(NC(=O)N3CCCC3)c2)ncc1I)c1cccs1 [BX 795] + CCNC(=O)c1noc(-c2cc(C(C)C)c(O)cc2O)c1-c1ccc(CN2CCOCC2)cc1 [Luminespib] (partner 0.01 µM)
Summary of the method: as §1

[5] = compound: O=C(NCCCNc1nc(Nc2cccc(NC(=O)N3CCCC3)c2)ncc1I)c1cccs1 [BX 795] + N=C(N)NC(=N)NCCc1ccccc1 [Phenformin] (partner 250 µM)
Summary of the method: as §1

[6] = compound: O=C(NCCCNc1nc(Nc2cccc(NC(=O)N3CCCC3)c2)ncc1I)c1cccs1 [BX 795] + COc1cccc2cc(-c3nc([C@H]4CC[C@H](C(=O)O)CC4)n4ncnc(N)c34)[nH]c12 [OSI-027] (partner 0.5 µM)
Summary of the method: as §1

[7] = compound: O=C(NCCCNc1nc(Nc2cccc(NC(=O)N3CCCC3)c2)ncc1I)c1cccs1 [BX 795]
Summary of the method: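 Viability was defined as treated-well nuclei divided by vehicle-well nuclei, with the median taken over replicate plates. Cells from lung cancer lines sat overnight at 37 °C in 1536-well plates, received five √10-spaced library-drug doses by pinning on vehicle-anchored plates, and grew 5 days without medium change before one-step fixation, permeabilisation and Hoechst staining, 4× imaging and MetaXpress nuclear counts. Only plates with control CV under 25% and at least one doubling were kept.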

[8] = compound: O=C(NCCCNc1nc(Nc2cccc(NC(=O)N3CCCC3)c2)ncc1I)c1cccs1 [BX 795] + CC(=O)c1c(C)c2cnc(Nc3ccc(N4CCNCC4)cn3)nc2n(C2CCCC2)c1=O [Palbociclib] (partner 0.5 µM)
Summary of the method: as §1

[9] = compound: O=C(NCCCNc1nc(Nc2cccc(NC(=O)N3CCCC3)c2)ncc1I)c1cccs1 [BX 795] + Nc1nc2[nH]cc(CCc3ccc(C(=O)N[C@@H](CCC(=O)O)C(=O)O)cc3)c2c(=O)[nH]1 [Pemetrexed] (partner 0.2 µM)
Summary of the method: as §1

[10] = compound: O=C(NCCCNc1nc(Nc2cccc(NC(=O)N3CCCC3)c2)ncc1I)c1cccs1 [BX 795] + O=C(c1cc(Cc2n[nH]c(=O)c3ccccc23)ccc1F)N1CCN(C(=O)C2CC2)CC1 [Olaparib] (partner 8 µM)
Summary of the method: as §1

[11] = compound: O=C(NCCCNc1nc(Nc2cccc(NC(=O)N3CCCC3)c2)ncc1I)c1cccs1 [BX 795] + NC(=O)Nc1cc(-c2cccc(F)c2)sc1C(=O)N[C@H]1CCCNC1 [AZD7762] (partner 0.2 µM)
Summary of the method: as §1

[12] = compound: O=C(NCCCNc1nc(Nc2cccc(NC(=O)N3CCCC3)c2)ncc1I)c1cccs1 [BX 795] + Nc1ncn([C@H]2C[C@H](O)[C@@H](CO)O2)c(=O)n1 [Decitabine] (partner 2 µM)
Summary of the method: as §1

[13] = compound: O=C(NCCCNc1nc(Nc2cccc(NC(=O)N3CCCC3)c2)ncc1I)c1cccs1 [BX 795] + CC(=O)Nc1cccc(-n2c(=O)n(C3CC3)c(=O)c3c(Nc4ccc(I)cc4F)n(C)c(=O)c(C)c32)c1 [Trametinib] (partner 0.02 µM)
Summary of the method: as §1

[14] = compound: O=C(NCCCNc1nc(Nc2cccc(NC(=O)N3CCCC3)c2)ncc1I)c1cccs1 [BX 795] + O=C(CCCCCCC(=O)Nc1ccccc1)NO [Vorinostat] (partner 1 µM)
Summary of the method: as §1

[15] = compound: O=C(NCCCNc1nc(Nc2cccc(NC(=O)N3CCCC3)c2)ncc1I)c1cccs1 [BX 795] + CS(=O)(=O)CCNCc1ccc(-c2ccc3ncnc(Nc4ccc(OCc5cccc(F)c5)c(Cl)c4)c3c2)o1 [Lapatinib] (partner 2 µM)
Summary of the method: as §1

[16] = compound: O=C(NCCCNc1nc(Nc2cccc(NC(=O)N3CCCC3)c2)ncc1I)c1cccs1 [BX 795] + CS(=O)(=O)N1CCN(Cc2cc3nc(-c4cccc5[nH]ncc45)nc(N4CCOCC4)c3s2)CC1 [Pictilisib] (partner 1 µM)
Summary of the method: as §1

[17] = compound: O=C(NCCCNc1nc(Nc2cccc(NC(=O)N3CCCC3)c2)ncc1I)c1cccs1 [BX 795] + CC(C)C[C@H](NC(=O)[C@H](Cc1ccccc1)NC(=O)c1cnccn1)B(O)O [Bortezomib] (partner 0.002 µM)
Summary of the method: as §1

[18] = compound: O=C(NCCCNc1nc(Nc2cccc(NC(=O)N3CCCC3)c2)ncc1I)c1cccs1 [BX 795] + C[C@]1(O)C[C@@H](c2nc(-c3ccc4ccc(-c5ccccc5)nc4c3)c3c(N)nccn32)C1 [Linsitinib] (partner 1 µM)
Summary of the method: as §1

[19] = compound: O=C(NCCCNc1nc(Nc2cccc(NC(=O)N3CCCC3)c2)ncc1I)c1cccs1 [BX 795] + C[C@@H](Oc1cc(-c2cnn(C3CCNCC3)c2)cnc1N)c1c(Cl)ccc(F)c1Cl [Crizotinib] (partner 1 µM)
Summary of the method: as §1

[20] = compound: O=C(NCCCNc1nc(Nc2cccc(NC(=O)N3CCCC3)c2)ncc1I)c1cccs1 [BX 795] + Cc1nc(NC(=O)N2CCC[C@H]2C(N)=O)sc1-c1ccnc(C(C)(C)C(F)(F)F)c1 [Alpelisib] (partner 2 µM)
Summary of the method: as §1

[21] = compound: O=C(NCCCNc1nc(Nc2cccc(NC(=O)N3CCCC3)c2)ncc1I)c1cccs1 [BX 795] + CC1(C)CCC(c2ccc(Cl)cc2)=C(CN2CCN(c3ccc(C(=O)NS(=O)(=O)c4ccc(N[C@H](CCN5CCOCC5)CSc5ccccc5)c(S(=O)(=O)C(F)(F)F)c4)cc3)CC2)C1 [Navitoclax] (partner 0.5 µM)
Summary of the method: as §1

NCI-H1623
relative viability ([1]; first compound 0.04 µM): 0.537 | relative viability ([1]; first compound 0.1265 µM): 0.572 | relative viability ([1]; first compound 0.4 µM): 0.533 | relative viability ([1]; first compound 1.265 µM): 0.512 | relative viability ([2]; first compound 0.04 µM): 0.429 | relative viability ([2]; first compound 0.1265 µM): 0.386 | relative viability ([2]; first compound 0.4 µM): 0.392 | relative viability ([2]; first compound 1.265 µM): 0.461 | relative viability ([3]; first compound 0.04 µM): 0.913 | relative viability ([3]; first compound 0.1265 µM): 0.952 | relative viability ([3]; first compound 0.4 µM): 0.88 | relative viability ([3]; first compound 1.265 µM): 0.892 | relative viability ([4]; first compound 0.04 µM): 0.598 | relative viability ([4]; first compound 0.1265 µM): 0.511 | relative viability ([4]; first compound 0.4 µM): 0.5 | relative viability ([4]; first compound 1.265 µM): 0.572 | relative viability ([5]; first compound 0.04 µM): 0.611 | relative viability ([5]; first compound 0.1265 µM): 0.568 | relative viability ([5]; first compound 0.4 µM): 0.491 | relative viability ([5]; first compound 1.265 µM): 0.516 | relative viability ([6]; first compound 0.04 µM): 0.458 | relative viability ([6]; first compound 0.1265 µM): 0.421 | relative viability ([6]; first compound 0.4 µM): 0.402 | relative viability ([6]; first compound 1.265 µM): 0.466 | relative viability ([7]; 0.04 µM): 1.15 | relative viability ([7]; 0.1265 µM): 0.972 | relative viability ([7]; 0.4 µM): 0.989 | relative viability ([7]; 1.265 µM): 0.892

NCI-H1648
relative viability ([8]; first compound 0.04 µM): 0.267 | relative viability ([8]; first compound 0.1265 µM): 0.264 | relative viability ([8]; first compound 0.4 µM): 0.411 | relative viability ([8]; first compound 1.265 µM): 0.299 | relative viability ([9]; first compound 0.04 µM): 0.727 | relative viability ([9]; first compound 0.1265 µM): 0.824 | relative viability ([9]; first compound 0.4 µM): 0.834 | relative viability ([9]; first compound 1.265 µM): 1.02 | relative viability ([10]; first compound 0.04 µM): 0.869 | relative viability ([10]; first compound 0.1265 µM): 1.51 | relative viability ([10]; first compound 0.4 µM): 1.15 | relative viability ([10]; first compound 1.265 µM): 1.11 | relative viability ([2]; first compound 0.04 µM): 0.611 | relative viability ([2]; first compound 0.1265 µM): 0.466 | relative viability ([2]; first compound 0.4 µM): 0.638 | relative viability ([2]; first compound 1.265 µM): 0.378 | relative viability ([11]; first compound 0.04 µM): 0.833 | relative viability ([11]; first compound 0.1265 µM): 0.756 | relative viability ([11]; first compound 0.4 µM): 0.791 | relative viability ([11]; first compound 1.265 µM): 0.911 | relative viability ([12]; first compound 0.04 µM): 0.584 | relative viability ([12]; first compound 0.1265 µM): 0.442 | relative viability ([12]; first compound 0.4 µM): 0.523 | relative viability ([12]; first compound 1.265 µM): 0.616 | relative viability ([13]; first compound 0.04 µM): 0.526 | relative viability ([13]; first compound 0.1265 µM): 0.451 | relative viability ([13]; first compound 0.4 µM): 0.575 | relative viability ([13]; first compound 1.265 µM): 0.481 | relative viability ([14]; first compound 0.04 µM): 0.441 | relative viability ([14]; first compound 0.1265 µM): 0.525 | relative viability ([14]; first compound 0.4 µM): 0.668 | relative viability ([14]; first compound 1.265 µM): 0.535 | relative viability ([6]; first compound 0.04 µM): 0.258 | relative viability ([6]; first compound 0.1265 µM): 0.214 | relative viability ([6]; first compound 0.4 µM): 0.265 | relative viability ([6]; first compound 1.265 µM): 0.247 | relative viability ([7]; 0.04 µM): 0.872 | relative viability ([7]; 0.1265 µM): 0.804 | relative viability ([7]; 0.4 µM): 0.972 | relative viability ([7]; 1.265 µM): 1.01

NCI-H1703
relative viability ([15]; first compound 0.04 µM): 0.729 | relative viability ([15]; first compound 0.1265 µM): 1.11 | relative viability ([15]; first compound 0.4 µM): 0.284 | relative viability ([15]; first compound 1.265 µM): 0.243 | relative viability ([16]; first compound 0.1265 µM): 0.201 | relative viability ([16]; first compound 0.4 µM): 0.222 | relative viability ([16]; first compound 1.265 µM): 0.185 | relative viability ([10]; first compound 0.1265 µM): 0.283 | relative viability ([10]; first compound 0.4 µM): 0.229 | relative viability ([10]; first compound 1.265 µM): 0.152 | relative viability ([17]; first compound 0.04 µM): 0.272 | relative viability ([17]; first compound 0.1265 µM): 0.223 | relative viability ([17]; first compound 0.4 µM): 0.167 | relative viability ([17]; first compound 1.265 µM): 0.159 | relative viability ([18]; first compound 0.1265 µM): 0.622 | relative viability ([18]; first compound 0.4 µM): 0.185 | relative viability ([18]; first compound 1.265 µM): 0.224 | relative viability ([19]; first compound 0.04 µM): 0.317 | relative viability ([19]; first compound 0.1265 µM): 0.453 | relative viability ([19]; first compound 0.4 µM): 0.148 | relative viability ([19]; first compound 1.265 µM): 0.179 | relative viability ([3]; first compound 0.1265 µM): 0.296 | relative viability ([3]; first compound 0.4 µM): 0.274 | relative viability ([3]; first compound 1.265 µM): 0.27 | relative viability ([20]; first compound 0.04 µM): 0.211 | relative viability ([20]; first compound 0.1265 µM): 0.286 | relative viability ([20]; first compound 0.4 µM): 0.194 | relative viability ([20]; first compound 1.265 µM): 0.204 | relative viability ([11]; first compound 0.04 µM): 0.138 | relative viability ([11]; first compound 0.1265 µM): 0.115 | relative viability ([11]; first compound 0.4 µM): 0.148 | relative viability ([11]; first compound 1.265 µM): 0.156 | relative viability ([21]; first compound 0.04 µM): 0.8 | relative viability ([21]; first compound 0.1265 µM): 1 | relative viability ([21]; first compound 0.4 µM): 0.22 | relative viability ([21]; first compound 1.265 µM): 0.289 | relative viability ([7]; 0.04 µM): 0.469 | relative viability ([7]; 0.1265 µM): 0.806 | relative viability ([7]; 0.4 µM): 0.236 | relative viability ([7]; 1.265 µM): 0.298
